Reference: patent US8110681B2, “Compounds for the treatment of spinal muscular atrophy and other uses” (The United States of America as represented by the …, priority 2006, dated 2012)
Where two headings read alike, the source gives them in different places.

Test system: SMN2-linked luciferase-reporter gene construct
Experiment: SMN splice reporter assay (SMN2-linked luciferase reporter, Example 10)
Assay type: cell-based
How it was run: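 Values are fold-increase in luciferase signal relative to baseline cells without compound. The cervical carcinoma line used holds a fusion of alternatively spliced SMN2 sequence and luciferase. Readable frame, and thus signal, arises only with exon 7-including splicing.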

[1] = SMN2-linked luciferase reporter, average
[2] = maximum fold increase of reporter signal, average, read-out: SMN Splice Reporter Assay (Example 10) Avg MaxFold Increase
[3] = read-out: SMN Splice Reporter Assay (Example 10) Avg MaxFold Increase, maximum fold increase of reporter signal, average, heading: SMN Splice Reporter Assay Avg MaxFold Increase
[4] = SMN2-linked luciferase reporter, average maximum fold increase, read-out: SMN Splice Reporter Assay (Example 10) Avg MaxFold Increase

Row | Structure (SMILES) | EC50 [1] [nM] | maximal fold induction [2] | maximal fold induction [3] | maximal fold induction [4]
1 | CCCc1ccc2c(c1)C(=O)N(c1ccc(C(C)COC)cc1)C2 (stereo not shown) [ALB-114091] | 699 | 1.46 | – | –
2 | Cc1ccc(-c2cccc3c2C(=O)N(c2ccc(C(C)C(=O)OC(C)(C)C)cc2)C3)cc1 (stereo not shown) [ALB-112151] | – | 1.11 | – | –
3 | CC(C(=O)O)c1ccc(N2Cc3ccc(Br)cc3C2=O)cc1 (stereo not shown) [ALB-112352] | 130 | – | 1.12 | –
4 | CC(C(=O)O)c1ccc(N2CC3=C(CC=CC3)C2=O)cc1 (stereo not shown) [ALB-112896] | 1010 | 1.58 | – | –
5 | O=C1c2cc3c(cc2CN1c1ccc(C2CCCCC2)cc1)OCCO3 [ALB-116417] | – | – | – | 1.11
6 | COc1ccc(C(=O)Nc2ccc3c(c2)C(=O)N(c2ccc(C(C)C(=O)O)cc2)C3)cc1 (stereo not shown) [ALB-111984] | 9460 | 1.19 | – | –
7 | CCCCCc1cccc2c1C(=O)N(c1ccc(C(C)C(=O)O)cc1)C2 (stereo not shown) [ALB-113497] | – | 1.18 | – | –
8 | CC(C(=O)O)c1ccc(N2Cc3ccccc3C2=O)cc1-c1cccs1 (stereo not shown) [ALB-112084] | – | 1.11 | – | –
9 | CCN(CC)c1ccc2c(c1)C(=O)N(c1ccc(C(C)C)cc1)C2 [ALB-116639] | 121 | 1.19 | – | –
10 | CC(C(=O)OC(C)(C)C)c1ccc(N2Cc3cc(-c4ccc(Cl)c(Cl)c4)ccc3C2=O)cc1 (stereo not shown) [ALB-111854] | – | 1.04 | – | –
11 | CC(C(=O)OC(C)(C)C)c1ccc(N2Cc3cccc(Br)c3C2=O)cc1 (stereo not shown) [ALB-112065] | 1340 | 1.22 | – | –
12 | COc1cc2c(cc1F)CN(c1ccc(C(C)C(=O)O)cc1)C2=O (stereo not shown) [ALB-119048] | 255 | 1.54 | – | –
13 | CCNC(=O)Nc1ccc2c(c1)C(=O)N(c1ccc(C(C)C)cc1)C2 [ALB-118414] | 3530 | – | – | 1.35
14 | COCC(C)c1ccc(N2Cc3ccc(COC(C)C)cc3C2=O)cc1 (stereo not shown) [ALB-114847] | – | 1.23 | – | –
15 | CC(C(=O)OC(C)(C)C)c1ccc(N2Cc3ccc(NS(C)(=O)=O)cc3C2=O)cc1 (stereo not shown) [ALB-111997] | 175 | – | 1.01 | –
16 | COc1ccc2c(c1)C(=O)N(c1ccc(C3CCCCC3)cc1)C2 [ALB-115496] | 556 | 1.39 | – | –
17 | CC(C(=O)O)c1ccc(N2Cc3cc(-c4ccccc4)ccc3C2=O)cc1 (stereo not shown) [ALB-111993] | 2950 | 1.54 | – | –
18 | CC(C)(C)OC(=O)Cc1ccc(N2Cc3ccccc3C2=O)cc1 [ALB-112230] | – | 1.1 | – | –
19 | CC(C)C(=O)Nc1ccc2c(c1)C(=O)N(c1ccc(C(C)C(=O)OC(C)(C)C)cc1)C2 (stereo not shown) [ALB-111989] | – | 1.06 | – | –
20 | COc1ccc(-c2cc(N3Cc4ccccc4C3=O)ccc2C(C)C(=O)O)cc1 (stereo not shown) [ALB-112002] | – | 1.08 | – | –
21 | CC(C(=O)OC(C)(C)C)c1ccc(N2Cc3c(cccc3-c3ccc(Cl)c(Cl)c3)C2=O)cc1 (stereo not shown) [ALB-112186] | – | 1.08 | – | –
22 | CC(C(=O)O)c1ccc(N2Cc3ccc(-c4ccc(Cl)c(Cl)c4)cc3C2=O)cc1 (stereo not shown) [ALB-112516] | – | 1.2 | – | –

Row | Structure (SMILES) | EC50 [1] [nM] | maximal fold induction [2] | maximal fold induction [3] | maximal fold induction [4]
23 | CC(C(=O)OC(C)(C)C)c1ccc(N2Cc3cccc(-c4ccccc4)c3C2=O)cc1 (stereo not shown) [ALB-112150] | – | 1.1 | – | –
24 | CCN(C)C(=O)N(C)c1ccc2c(c1)C(=O)N(c1ccc(C(C)C)cc1)C2 [ALB-119049] | – | – | – | 1.08
25 | CC(C(=O)OC(C)(C)C)c1ccc(N2Cc3c(N)cccc3C2=O)cc1 (stereo not shown) [ALB-111952] | – | 1.04 | – | –
26 | COc1cc2c(c(OC)c1Br)C(=O)N(c1ccc(C(C)C)cc1)C2 [ALB-117901] | – | 1.07 | – | –
27 | Cc1ccc(N2Cc3ccccc3C2=O)cc1 [ALB-114898] | 302 | 1.36 | – | –
28 | CC(C)c1ccc(N2Cc3ccc(NC(=O)N(C)c4ccccc4)cc3C2=O)cc1 [ALB-118733] | – | – | – | 1.12
29 | CC(C(=O)OC(C)(C)C)c1ccc(N2Cc3ccccc3C2=O)c(-c2ccc(Cl)cc2)c1 (stereo not shown) [ALB-112162] | – | 1.03 | – | –
30 | CCOCC(C)c1ccc(N2Cc3ccccc3C2=O)cc1 (stereo not shown) [ALB-114744] | – | 1.18 | – | –
31 | C/C=C/c1ccc2c(c1)C(=O)N(c1ccc(C(C)C)cc1)C2 [ALB-115319] | – | 1.24 | – | –
32 | CC(C(=O)O)c1ccc(N2Cc3c(cccc3-c3ccc(Cl)cc3)C2=O)cc1 (stereo not shown) [ALB-112223] | 11000 | 1.31 | – | –
33 | COCC(C)c1ccc(N2Cc3cc(OC)c(OC)cc3C2=O)cc1 (stereo not shown) [ALB-114943] | 1320 | 1.35 | – | –
34 | CC(C)c1ccc(N2Cc3ccc(NC(=O)N(C)C)cc3C2=O)cc1 [ALB-118731] | 854 | – | – | 1.2
35 | COc1ccc(-c2ccc3c(c2)C(=O)N(c2ccc(C(C)C(=O)O)cc2)C3)cc1 (stereo not shown) [ALB-112448] | 6190 | 1.55 | – | –
36 | CC(C(=O)OC(C)(C)C)c1ccc(N2Cc3ccc(OC(F)F)cc3C2=O)cc1 (stereo not shown) [ALB-119336] | 718 | – | – | 1.21
37 | CC(C)NC(=O)C(C)c1ccc(N2Cc3ccccc3C2=O)cc1 (stereo not shown) [ALB-112076] | 1370 | 1.12 | – | –
38 | CC(C(=O)O)c1ccc(N2Cc3ccc(OCC4CCC4)cc3C2=O)cc1 (stereo not shown) [ALB-115585] | 83 | 1.48 | – | –
39 | CC(C(=O)O)c1ccc(N2Cc3ccccc3C2=O)cc1Br (stereo not shown) [ALB-111962] | – | 1.08 | – | –
40 | CCOC(=O)C(C)c1ccc(N2Cc3ccccc3C2=O)cc1 (stereo not shown) [ALB-111732] | 325 | 1.41 | – | –
41 | CC(C(=O)OC(C)(C)C)c1ccc(N2Cc3ccccc3C2=O)c(-c2ccc(Cl)c(Cl)c2)c1 (stereo not shown) [ALB-112080] | – | 1.03 | – | –
42 | COCc1ccc2c(c1)C(=O)N(c1ccc(C(C)C(=O)O)cc1)C2 (stereo not shown) [ALB-114439] | 52 | 1.51 | – | –
43 | CCOCc1ccc2c(c1)C(=O)N(c1ccc(C(C)COC)cc1)C2 (stereo not shown) [ALB-114846] | 493 | 1.3 | – | –
44 | CCCCc1ccc2c(c1)C(=O)N(c1ccc(C(C)C(=O)O)cc1)C2 (stereo not shown) [ALB-115086] | 61 | 2.06 | – | –

Row | Structure (SMILES) | EC50 [1] [nM] | maximal fold induction [2] | maximal fold induction [3] | maximal fold induction [4]
45 | CCCc1ccc2c(c1)CN(c1ccc(C(C)C(=O)O)cc1)C2=O (stereo not shown) [ALB-113564] | – | 1.05 | – | –
46 | Cc1ccc2c(c1)C(=O)N(c1ccc(C3CC3)cc1)C2 [ALB-115949] | 6 | – | – | 1.37
47 | CC(C)c1ccc(N2Cc3c(Br)cccc3C2=O)cc1 [ALB-115811] | – | 1.16 | – | –
48 | CCCCCc1ccc2c(c1)CN(c1ccc(C(C)C(=O)O)cc1)C2=O (stereo not shown) [ALB-113491] | – | 1.12 | – | –
49 | CC(C)c1ccc(N2Cc3cccc(N)c3C2=O)cc1 [ALB-117574] | 163 | 1.73 | – | –
50 | CCCCc1ccc2c(c1)CN(c1ccc(C(C)C(=O)O)cc1)C2=O (stereo not shown) [ALB-113835] | – | 1.15 | – | –
51 | Cc1ccc2c(c1)C(=O)N(c1ccc(C(C)C(=O)O)cc1)C2 (stereo not shown) [ALB-112954] | 330 | 1.62 | – | –
52 | CC(C(=O)O)c1ccc(N2Cc3cccnc3C2=O)cc1 (stereo not shown) [ALB-112229a] | – | 1.13 | – | –
53 | CC(C(=O)O)c1ccc(N2Cc3c(N)cccc3C2=O)cc1 (stereo not shown) [ALB-111996a] | – | 1.11 | – | –
54 | COCC(C)c1ccc(N2Cc3ccccc3C2=O)cc1 (stereo not shown) [ALB-113389] | 179 | 1.34 | – | –
55 | COCc1ccc(N2Cc3ccccc3C2=O)cc1 [ALB-115323] | – | 1.1 | – | –
56 | CC(C(=O)OC(C)(C)C)c1ccc(N2Cc3ccc(N(C)C(=O)c4ccccc4)cc3C2=O)cc1 (stereo not shown) [ALB-112169] | – | 1.07 | – | –
57 | CC(C(=O)OC(C)(C)C)c1ccc(N2Cc3ccc(-c4cncnc4)cc3C2=O)cc1 (stereo not shown) [ALB-112476] | – | 1.08 | – | –
58 | CC(C(=O)OC(C)(C)C)c1ccc(N2Cc3cc(Cl)ccc3C2=O)cc1 (stereo not shown) [ALB-111761] | 5560 | 1.19 | – | –
59 | CC(CF)c1ccc(N2Cc3ccc(C4CCCC4)cc3C2=O)cc1 (stereo not shown) [ALB-114740] | 822 | 1.22 | – | –
60 | CC(C(=O)O)c1ccc(N2CC3CCCCC3C2=O)cc1 (stereo not shown) [ALB-112901] | 5820 | 1.49 | – | –
61 | CC(C)c1ccc(N2Cc3ccc(CN(C)C)cc3C2=O)cc1 [ALB-116934] | – | 1.05 | – | –
62 | CC(C(=O)O)c1ccc(N2Cc3ccccc3C2=O)c(-c2cccs2)c1 (stereo not shown) [ALB-112233] | – | 1.03 | – | –
63 | CCCc1cc(N2Cc3ccccc3C2=O)ccc1C(C)C(=O)O (stereo not shown) [ALB-112083] | – | 1.09 | – | –
64 | CC(C(=O)NO)c1ccc(N2Cc3ccccc3C2=O)cc1 (stereo not shown) [ALB-111748] | 2270 | 1.38 | – | –
65 | CCCC(C)c1ccc(N2Cc3ccccc3C2=O)cc1 (stereo not shown) [ALB-117045] | 70 | 1.25 | – | –
